Measured values taken from patent US20200032213A1, “CONDITIONALLY IMMORTALIZED CELLS AND METHODS FOR THEIR PREPARATION” (Academisch Ziekenhuis Leiden h.o.d.n. LUMC, priority 2017, published 2020).

Columns and labels:
[1] = tested on: iaCMCs; assay: Dox-dependent proliferation of iaCMCs (Ki-67 immunostaining, cell counting); type: cell-based, rat; settings: in the presence of Dox (100 ng/ml)
Description: Immunostaining of cultured cells was performed as previously described (Yu et al., 2016) using the following primary antibodies at a dilution of 1:200 in PBS containing 0.1% normal donkey serum (NDS; Sigma-Aldrich): mouse anti-LT (Santa Cruz Biotechnology, catalogue number: sc-147), rabbit anti-Ki-67 (Abcam, catalogue number: ab15580), mouse anti-α-actinin (Sigma-Aldrich, catalogue number: A7811), rabbit anti-MLC2a (Kubalak et al., 1994), rabbit anti-Cx43 (Sigma-Aldrich, catalogue number: C6219) and rabbit anti-ERG1/Kv11.1 (Millipore, catalogue number: AB5930). Bound antigens were detected using Alexa 488-conjugated donkey anti-rabbit IgG (H+L) (Thermo Fisher Scientific, catalogue number: A21206) and Alexa 568-coupled donkey anti-mouse IgG (H+L) (Thermo Fisher Scientific, catalogue number: A10037). These secondary antibodies were diluted 1:400 in PBS. Hoechst 33342 ([…]; Thermo Fisher Scientific) was used to counterstain nuclei. Stained cells were visualized using a digital color camera-equipped fluorescence microscope (Nikon Eclipse 80i; Nikon Instruments Europe, Amstelveen, The Netherlands). To assess their proliferation rate, […] were cultured at low density in medium with or without 100 ng/ml Dox. […]

[2] = tested on: iaCMCs at day 9 of differentiation; assay: Optical voltage mapping of tertiapin-treated iaCMC-d9 monolayers, 1-Hz pacing; type: cell-based, rat; settings: tertiapin (100 nM), iaCMCs cultured 9 days without Dox
Description: (§1) For studying AP propagation in confluent monolayer cultures, cells were seeded at a density of 8×10^5 cells/well in 24-well cell culture plates onto bovine fibronectin-coated round glass coverslips (15 mm diameter) and subjected to optical voltage mapping using di-4-ANEPPS (Thermo Fisher Scientific) as fluorescent voltage indicator as described previously (Bingen et al., 2014). The measurements were carried out at 37° C. on 9-day-old naCMC and nvCMC cultures and on iaCMCs that had been maintained for 0, 3, 6, 9 and 12 days in Dox-free medium. Optical signals were captured using a MiCAM ULTIMA-L imaging system (SciMedia, Costa Mesa, Calif.). Optical traces were analyzed using Brain Vision Analyzer 1208 software (Brainvision, Tokyo, Japan). To minimize noise artifacts, calculations were based on the average of the signals at a selected pixel and its eight nearest neighbors. CV and APD at different percentages of repolarization were determined using cardiomyocyte cultures showing uniform AP propagation and 1:1 capture after 1-Hz local electrical stimulation with an epoxy-coated bipolar platinum electrode delivering square 10-ms, 8-V suprathreshold electrical impulses via a STG 2004 stimulus generator and MC Stimulus II software (both from Multi Channel Systems). Burst pacing with a cycle length of 20 to 100 ms was used to induce reentry. […]

[3] = tested on: confluent naCMC cultures; settings: naCMCs; Bingen et al., 2013; cited from earlier work
[4] = tested on: confluent monolayers of iaCMCs; assay: In vitro AF model: induction of reentry by burst pacing in confluent iaCMC monolayers; type: cell-based, rat; settings: 100 nM tertiapin, iaCMCs at day 6, 9 or 12 of differentiation
Description: as §1

[5] = tested on: adipogenically differentiated murine clone 6 and 7 tBPAs; assay: Adrenergic stimulation of adipogenically differentiated tBPAs (glycerol production, Ucp1 transcripts); type: cell-based
[6] = tested on: iaCMCs at day 6 of differentiation; assay: Optical voltage mapping of iaCMC-d6 cultures exposed to astemizole, 1-Hz pacing; type: cell-based, rat
Description: For studying AP propagation in confluent monolayer cultures, cells were seeded at a density of 8×10^5 cells/well in 24-well cell culture plates onto bovine fibronectin-coated round glass coverslips (15 mm diameter) and subjected to optical voltage mapping using di-4-ANEPPS (Thermo Fisher Scientific) as fluorescent voltage indicator as described previously (Bingen et al., 2014). The measurements were carried out at 37° C. on 9-day-old naCMC and nvCMC cultures and on iaCMCs that had been maintained for 0, 3, 6, 9 and 12 days in Dox-free medium. Optical signals were captured using a MiCAM ULTIMA-L imaging system (SciMedia, Costa Mesa, Calif.). Optical traces were analyzed using Brain Vision Analyzer 1208 software (Brainvision, Tokyo, Japan). To minimize noise artifacts, calculations were based on the average of the signals at a selected pixel and its eight nearest neighbors. CV and APD at different percentages of repolarization were determined using cardiomyocyte cultures showing uniform AP propagation and 1:1 capture after 1-Hz local electrical stimulation with an epoxy-coated bipolar platinum electrode delivering square 10-ms, 8-V suprathreshold electrical impulses via a STG 2004 stimulus generator and MC Stimulus II software (both from Multi Channel Systems). Burst pacing with a cycle length of 20 to 100 ms was used to induce reentry. […] To facilitate comparison of the APD, the amplitude of the optical signal traces was normalized for all samples within a given experiment.

## C[C@H]1c2cccc(O)c2C(=O)C2=C(O)[C@]3(O)C(=O)C(C(N)=O)=C(O)[C@@H](N(C)C)[C@@H]3[C@@H](O)[C@@H]21 [Dox, doxycycline]
[1]
  average doubling time: 38 h
  iaCMCs positive for the proliferation marker Ki-67: 72.2±8.1%

## tertiapin (ALCNCNRIIIPHMCWKKCGKK)
[2]
  effect on APD: strong increase
[3]
  termination of reentrant circuits (rotors) by prolonging APD: could be terminated
[4]
  inducibility of reentry by burst pacing: no longer possible to induce reentry

## C[C@H](Cc1ccc2c(c1)OC(C(=O)[O-])(C(=O)[O-])O2)NC[C@H](O)c1cccc(Cl)c1.[Na+].[Na+] [CL316243]
[5]
  Ucp1 transcript levels: increased
  glycerol production: increased

## NC[C@H](O)c1ccc(O)c(O)c1 [noradrenaline]
[5]
  Ucp1 transcript levels: increased
  glycerol production: increased

## COc1ccc(CCN2CCC(Nc3nc4ccccc4n3Cc3ccc(F)cc3)CC2)cc1 [astemizole]
[6]; 0.1 µM
  conduction velocity (CV): 14.8 ± 2.8 cm/s
[6]; 100 nM astemizole, 30 minutes, iaCMC-d6, 1-Hz pacing, N=6, vehicle 21.5±1.0
  APD at 40% repolarization (APD40): 30.2 ± 2.1 ms
[6]; 100 nM astemizole, 30 minutes, iaCMC-d6, 1-Hz pacing, N=6, vehicle 88.7±5.4
  APD at 90% repolarization (APD90): 110.9 ± 4.2 ms
